Test results as given in patent publication US12077503B2, “Substituted cyclic amides and their use as herbicides” (FMC CORPORATION, priority 2015, dated 2024).

Assays:
Assay type in all cases: in vivo
[1] = test system: barnyardgrass (Echinochloa crus-galli); assay: Test A preemergence; conditions: Preemergence
Method in brief: (§1)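 Greenhouse, ~10 d after spray; visual injury vs untreated controls, 0 = no effect, 100 = complete control. Preemergence: directed soil spray over planted seeds. Postemergence: plants 2–10 cm, 1–2 leaf stage. Loam/sand blend. Compound in non-phytotoxic solvent with surfactant.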

[2] = test system: ragweed (common ragweed, Ambrosia elatior); assay: Test A preemergence; conditions: Preemergence
Method in brief: as §1

[3] = test system: pigweed (Amaranthus retroflexus); assay: Test A preemergence; conditions: Preemergence
[4] = test system: giant foxtail (Setaria faberii); assay: Test A preemergence; conditions: Preemergence
Method in brief: as §1

[5] = test system: ryegrass, Italian (Italian ryegrass, Lolium multiflorum); assay: Test A preemergence; conditions: Preemergence
Method in brief: as §1

Kochia (Kochia scoparia) [6] = assay: Test A preemergence; conditions: Preemergence
Method in brief: as §1

[7] = test system: sedge, umbrella (small-flower umbrella sedge, Cyperus difformis); assay: Test B flooded paddy test; conditions: Flood, 250 g ai/ha; 0 to 100 scale where 0 is no effect and 100 is complete control; 13 to 15 d
Method in brief: (§2)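 Evaluation by eye, against controls, occurred 13–15 d post-treatment in a greenhouse, using a 0 (no effect) to 100 (complete control) scale. Application was into the paddy water, 3 cm deep over the soil, on 2-leaf plants.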

[8] = test system: ducksalad (Heteranthera limosa); assay: Test B flooded paddy test; conditions: Flood, 250 g ai/ha; 0 to 100 scale where 0 is no effect and 100 is complete control; 13 to 15 d
Method in brief: as §2

rice (Oryra sativa) = assay: Test B flooded paddy test; conditions: Flood, 250 g ai/ha; 0 to 100 scale where 0 is no effect and 100 is complete control; 13 to 15 d
Method in brief: as §2

[9] = test system: barnyardgrass (Echinochloa crus-galli); assay: Test B flooded paddy test; conditions: Flood, 250 g ai/ha; 0 to 100 scale where 0 is no effect and 100 is complete control; 13 to 15 d
Method in brief: as §2

corn (Zea mays) = assay: Test A postemergence
Method in brief: as §1

[10] = test system: Galium (catchweed bedstraw, Galium aparine); assay: Test A postemergence
Method in brief: as §1

[11] = test system: barnyardgrass (Echinochloa crus-galli); assay: Test A postemergence
Method in brief: as §1

[12] = test system: ragweed (common ragweed, Ambrosia elatior); assay: Test A postemergence
Method in brief: as §1

[13] = test system: blackgrass (Alopecurus myosuroides); assay: Test A postemergence
Method in brief: as §1

[14] = test system: pigweed (Amaranthus retroflexus); assay: Test A postemergence
Method in brief: as §1

[15] = test system: giant foxtail (Setaria faberii); assay: Test A postemergence
Method in brief: as §1

[16] = test system: ryegrass, Italian (Italian ryegrass, Lolium multiflorum); assay: Test A postemergence
Method in brief: as §1

[17] = test system: wheat (Triticum aestivum); assay: Test A postemergence
Method in brief: as §1

Kochia (Kochia scoparia) [18] = assay: Test A postemergence
Method in brief: as §1

[19] = test system: sedge, umbrella (small-flower umbrella sedge, Cyperus difformis); assay: Test C flooded paddy test; conditions: Flood, 0 is no effect, 100 is complete control
Description: (§3) Plant species in the flooded paddy test consisted of rice (Oryza sativa), sedge, umbrella (small-flower umbrella sedge, Cyperus difformis), ducksalad (Heteranthera limosa), and barnyardgrass (Echinochloa crus-galli) grown to the 2-leaf stage for testing. At time of treatment, test pots were flooded to 3 cm above the soil surface, treated by application of test compounds directly to the paddy water, and then maintained at that water depth for the duration of the test. Treated plants and controls were maintained in a greenhouse for 13 to 15 d, after which time all species were compared to controls and visually evaluated. Plant response ratings, summarized in Table C, are based on a scale of 0 to 100 where 0 is no effect and 100 is complete control. A dash (-) response means no test result.

rice (Oryza sativa) = assay: Test C flooded paddy test; conditions: Flood, 0 is no effect, 100 is complete control
Description: as §3

[20] = test system: ducksalad (Heteranthera limosa); assay: Test C flooded paddy test; conditions: Flood, 0 is no effect, 100 is complete control
Description: as §3

[21] = test system: barnyardgrass (Echinochloa crus-galli); assay: Test C flooded paddy test; conditions: Flood, 0 is no effect, 100 is complete control
Description: as §3

[22] = 125 g ai/ha, visual injury after approximately 10 d, 0 to 100 scale where 0 is no effect and 100 is complete control
[23] = 500 g ai/ha, visual injury approx. 10 d
[24] = 125 g ai/ha, postemergence, visual rating after approx. 10 d, 0 to 100 scale (0 no effect, 100 complete control)
[25] = Postemergence, 500 g ai/ha, 0 to 100 scale where 0 is no effect and 100 is complete control

C=CCN1CC(c2cccc(C(F)(F)F)c2)C(C(=O)Nc2cccc(F)c2F)C1=O (stereo not shown) [Compound 606]
0: Plant response rating, Ragweed [2, 22] | Ragweed plant response rating (0 to 100 scale, 0 is no effect, 100 is complete control) [2, 23] | Plant response rating, Pigweed [3, 22] | Pigweed plant response rating (0 to 100 scale, 0 is no effect, 100 is complete control) [3, 23] | Plant response rating, Ryegrass, Italian [5, 22] | Ryegrass, Italian plant response rating (0 to 100 scale, 0 is no effect, 100 is complete control) [5, 23] | Plant response rating, Kochia (Kochia (Kochia scoparia) [6]; [22]) | Kochia plant response rating (0 to 100 scale, 0 is no effect, 100 is complete control) (Kochia (Kochia scoparia) [6]; [23]) | Plant response rating, Ducksalad [8] | Plant response rating, Rice (rice (Oryra sativa)) | Plant response rating, Corn (corn (Zea mays); [24]) | Plant response rating, Corn (corn (Zea mays); [25]) | Plant response rating, Ragweed [12, 24] | Plant response rating, Ragweed [12, 25] | Plant response rating, Blackgrass [13, 24] | Plant response rating, Ryegrass, Italian [16, 24] | Plant response rating, Ryegrass, Italian [16, 25] | Plant response rating, Wheat [17, 24] | Plant response rating, Wheat [17, 25] | Plant response rating, Kochia (Kochia (Kochia scoparia) [18]; [24]) | Plant response rating, Kochia (Kochia (Kochia scoparia) [18]; [25]) | Plant response rating (scale of 0 to 100), Sedge, Umbrella ([19]; 31 g ai/ha) | Plant response rating (scale of 0 to 100), Sedge, Umbrella ([19]; 62 g ai/ha) | Plant response rating (scale of 0 to 100), Sedge, Umbrella ([19]; 125 g ai/ha) | Plant response rating (scale of 0 to 100), Sedge, Umbrella ([19]; 250 g ai/ha) | Plant response rating (scale of 0 to 100), Rice (rice (Oryza sativa); 31 g ai/ha) | Plant response rating (scale of 0 to 100), Rice (rice (Oryza sativa); 62 g ai/ha) | Plant response rating (scale of 0 to 100), Rice (rice (Oryza sativa); 125 g ai/ha) | Plant response rating (scale of 0 to 100), Rice (rice (Oryza sativa); 250 g ai/ha) | Plant response rating (scale of 0 to 100), Ducksalad ([20]; 31 g ai/ha) | Plant response rating (scale of 0 to 100), Ducksalad ([20]; 62 g ai/ha) | Plant response rating (scale of 0 to 100), Barnyardgrass ([21]; 31 g ai/ha) | Plant response rating (scale of 0 to 100), Barnyardgrass ([21]; 62 g ai/ha)
60: Plant response rating, Galium [10, 24]
80: Barnyardgrass plant response rating (0 to 100 scale, 0 is no effect, 100 is complete control) [1, 23] | Plant response rating, Foxtail, Giant [4, 22]
20: Plant response rating (scale of 0 to 100), Barnyardgrass ([21]; 125 g ai/ha)
90: Foxtail, Giant plant response rating (0 to 100 scale, 0 is no effect, 100 is complete control) [4, 23] | Plant response rating, Foxtail, Giant [15, 25]
40: Plant response rating, Sedge, Umbrella [7] | Plant response rating, Blackgrass [13, 25] | Plant response rating (scale of 0 to 100), Barnyardgrass ([21]; 250 g ai/ha)
70: Plant response rating, Galium [10, 25] | Plant response rating, Barnyardgrass [11, 25] | Plant response rating, Pigweed [14, 25] | Plant response rating, Foxtail, Giant [15, 24] | Plant response rating (scale of 0 to 100), Ducksalad ([20]; 250 g ai/ha)
50: Plant response rating, Barnyardgrass [1, 22] | Plant response rating, Barnyardgrass [9] | Plant response rating, Barnyardgrass [11, 24] | Plant response rating, Pigweed [14, 24] | Plant response rating (scale of 0 to 100), Ducksalad ([20]; 125 g ai/ha)
